42 molecules from patent US20210038559A1, “CANNABINOIDS AND DERIVATIVES FOR PROMOTING IMMUNOGENICITY OF TUMOR AND INFECTED CELLS” (priority 2018, published 2021) can be followed below.

Each structure is given as a SMILES string. Where a name gives a salt, the structure may show the parent alone.

The first test has as its system MHC-I expression by COLO 205 cells. Briefly: cells. The format is cell-based, human.
Conditions: not given
The protocol:
A panel of synthetic cannabinoids (Cayman Chemical, #9002891) was tested for MHC class I-inducing capability in COLO 205 cells as described above. COLO 205 cells were treated with the compounds at a concentration of 35 μM and evaluated for cell surface MHC class I expression after 48 hours. Cells were harvested, stained with MHC-I mAb W6/32 (Thermo Fisher). MHC-I expression was determined by flow cytometry.
As to `CCCCn1c(C)c(C(=O)c2cccc3ccccc23)c2ccccc21` [Example 122, (1-butyl-2-methyl-1H-indol-3-yl)-1-naphthalenyl-methanone], the “Induction Fold” value is given as 2.31 Fold.

For the molecule `O=C(c1cccc2ccccc12)c1nn(CCCCCF)c2ccccc12` [Example 134, [1-(5-fluoropentyl)-1H-indazol-3-yl]-1-naphthalenyl-methanone], the “Induction Fold” value is 2.23 Fold. The same measure, in the same setting: then `CCCCCOc1ccc(C(=O)c2cccc3ccccc23)c2ccccc12` [Example 152, 1-naphthalenyl[4-(pentoxy)-1-naphthalenyl]-methanone], with 2.12 Fold.

Still in this test, the particulars now being: Homo sapiens, COLO 205, 48 h, MHC-I expression, COLO 205 cells, compounds at 35 μM, 48 hours, flow cytometry (W6/32); read-out: Induction Fold.
`CCC(Cl)CCn1cc(C(=O)c2cccc3ccccc23)c2ccccc21` (stereo not drawn) [Example 114, (1-(3-chloropentyl)-1H-indol-3-yl)(naphthalen-1-yl)methanone]: the fold induction at 35 µM came to 2.35. Same read-out and setting: to `CCCCCn1cc(C(=O)c2cccc3cccc(CC)c23)c2ccccc21` [Example 115, (8-ethylnaphthalen-1-yl)(1-pentyl-1H-indol-3-yl)methanone] belongs 2.35; to `O=C(c1cccnc1)c1cn(CCCCCF)c2ccccc12` [Example 116, (1-(5-fluoropentyl)-1H-indol-3-yl)(pyridin-3-yl)methanone, monohydrochloride], 2.34; to `CCCCCCCn1cc(C(=O)C2C(C)(C)C2(C)C)c2ccccc21` [Example 118, (1-heptyl-1H-indol-3-yl)(2,2,3,3-tetramethylcyclopropyl)-methanone], 2.33. Same read-out and setting: to `CC(C)(C)C(NC(=O)c1cc(-c2ccc(F)cc2)nn1CCCCCF)C(N)=O` (stereo not drawn) [Example 119, N-[1-(aminocarbonyl)-2,2-dimethylpropyl]-1-(5-fluoropentyl)-3-(4-fluorophenyl)-1H-pyrazole-5-carboxamide] belongs 2.33. The same measure, in the same setting: to `CCCCCn1cc(C(=O)Cc2ccccc2Br)c2ccccc21` [Example 120, 2-(2-bromophenyl)-1-(1-pentyl-1H-indol-3-yl)-ethanone] belongs 2.32. As for `COc1ccc2c(c1)c(CC(=O)N1CCOCC1)c(C)n2C(=O)c1ccc(Cl)cc1` [Example 121, 2-[1-(4-chlorobenzoyl)-5-methoxy-2-methyl-1H-indol-3-yl]-1-(4-morpholinyl)-ethanone], the fold induction at 35 µM is 2.32. The same measure, in the same setting: to `CCCCCn1c(C(=O)c2cccc3ccccc23)nc2ccccc21` [Example 123, naphthalen-1-yl(1-pentyl-1H-benzo[d]imidazol-2-yl)methanone] belongs 2.31; to `O=C(Oc1cncc2ccccc12)c1cn(CC2CCCCC2)c2ccccc12` [Example 124, isoquinolin-4-yl 1-(cyclohexylmethyl)-1H-indole-3-carboxylate], 2.3; to `Cc1c(C(=O)C2C(C)(C)C2(C)C)c2ccccc2n1CCCCCF` [Example 126, (1-(5-fluoropentyl)-2-methyl-1H-indol-3-yl)(2,2,3,3-tetramethylcyclopropyl)methanone], 2.29. Same read-out and setting: to `CCC(C)n1cc(C(=O)c2cccc3ccccc23)c2ccccc21` (stereo not drawn) [Example 127, (1-(sec-butyl)-1H-indol-3-yl)(naphthalen-1-yl)methanone] belongs 2.29; to `CCC(F)CCn1cc(C(=O)c2cccc3ccccc23)c2ccccc21` (stereo not drawn) [Example 128, (1-(3-fluoropentyl)-1H-indol-3-yl)(naphthalen-1-yl)methanone], 2.28. Same read-out and setting: then `CCCCCn1cc(C(=O)c2ccc(OC)cc2)c2ccccc21` [Example 129, (4-methoxyphenyl)(1-pentyl-1H-indol-3-yl)methanone], with 2.27; and `O=C(c1cccc(I)c1)c1cn(CCCCCF)c2ccccc12` [Example 130, (1-(5-fluoropentyl)-1H-indol-3-yl)(3-iodophenyl)methanone], with 2.26; and `CCCCCn1cc(C(=O)Oc2cccc3ncccc23)c2ccccc21` [Example 131, quinolin-5-yl 1-pentyl-1H-indole-3-carboxylate], with 2.26. Consider `C/C(=C\C(=O)c1cn(CCN2CCOCC2)c2ccccc12)C(C)(C)C` [Example 132, (E)-3,4,4-trimethyl-1-(1-(2-morpholinoethyl)-1H-indol-3-yl)pent-2-en-1-one], for which the fold induction at 35 µM came out at 2.25. The same measure, in the same setting: to `CCC(F)CCn1cc(C(=O)C2C(C)(C)C2(C)C)c2ccccc21` (stereo not drawn) [Example 133, [1-(3-fluoropentyl)-1H-indol-3-yl] (2,2,3,3-tetramethylcyclopropyl)-methanone] belongs 2.23; to `O=C(Oc1cnc2ccccc2c1)c1cn(CCCCCF)c2ccccc12` [Example 136, quinolin-3-yl 1-(5-fluoropentyl)-1H-indole-3-carboxylate], 2.22. Still for that read-out and setting: then `CC1(C)C(C(=O)c2cn(CCCCCCl)c3ccccc23)C1(C)C` [Example 138, (1-(5-chloropentyl)-1H-indol-3-yl)(2,2,3,3-tetramethylcyclopropyl)methanone], with 2.21; and `O=C(c1ccc2ccccc2c1)c1cn(CCCCCF)c2ccccc12` [Example 139, (1-(5-fluoropentyl)-1H-indol-3-yl)(naphthalen-2-yl)methanone], with 2.19. Same read-out and setting: to `CCCCCn1cc(C(=O)Nc2cccc3cccnc23)c2ccccc21` [Example 141, 1-pentyl-N-8-quinolinyl-1H-indole-3-carboxamide] belongs 2.19; to `O=C(c1cccc2ccccc12)c1nn(CCCCCCl)c2ccccc12` [Example 142, (1-(5-chloropentyl)-1H-indazol-3-yl)(naphthalen-1-yl)methanone], 2.19. With `CC(C)[C@H](NC(=O)c1nn(Cc2ccccc2F)c2ccccc12)C(N)=O` [Example 143, N-[(1S)-1-(aminocarbonyl)-2-methylpropyl]-1-[(2-fluorophenyl)methyl]-1H-indazole-3-carboxamide], the fold induction at 35 µM is 2.19. The same measure, in the same setting: then `O=C(NC12CC3CC(CC(C3)C1)C2)c1cn(CCCCCF)c2ccccc12` [Example 144, 1-(5-fluoropentyl)-N-tricyclo[3.3.1.13,7] dec-1-yl-1H-indole-3-carboxamide], with 2.17; and `Cc1ccc(C(=O)c2cn(CCCC(C)F)c3ccccc23)c2ccccc12` (stereo not drawn) [Example 145, (1-(4-fluoropentyl)-1H-indol-3-yl)(4-methylnaphthalen-1-yl)methanone], with 2.16; and `CCCCCn1cc(C(=O)c2cccc3ccc(Cl)cc23)c2ccccc21` [Example 146, (7-chloronaphthalen-1-yl)(1-pentyl-1H-indol-3-yl)methanone], with 2.16. Same read-out and setting: then `CC1(C)C(C(=O)c2cn(CCN3CCOCC3)c3ccccc23)C1(C)C` [Example 147, [1-[2-(4-morpholinyl)ethyl]-1H-indol-3-yl](2,2,3,3-tetramethylcyclopropyl)-methanone], with 2.14; and `C=CCCCn1cc(C(=O)C2C(C)(C)C2(C)C)c2ccccc21` [Example 148, (1-(pent-4-en-1-yl)-1H-indol-3-yl)(2,2,3,3-tetramethylcyclopropyl)methanone], with 2.14. Same read-out and setting: to `CCCCCn1cc(C(=O)c2ccc(F)c3ccccc23)c2ccccc21` [Example 150, (4-fluoro-1-naphthalenyl)(1-pentyl-1H-indol-3-yl)-methanone] belongs 2.14; to `CCCC(F)Cn1cc(C(=O)C2C(C)(C)C2(C)C)c2ccccc21` (stereo not drawn) [Example 153, [1-(2-fluoropentyl)-1H-indol-3-yl] (2,2,3,3-tetramethylcyclopropyl)-methanone], 2.11. With `Cc1ccc(C(=O)c2cn(CCCCCF)c3ccccc23)c2ccccc12` [Example 155, [1-(5-fluoropentyl)-1H-indol-3-yl](4-methyl-1-naphthalenyl)-methanone], the fold induction at 35 µM turned out to be 2.08.

On to `O=C(c1cccc2ccccc12)c1cn(CCCC2CO2)c2ccccc12` (stereo not drawn) [Example 156, naphthalen-1-yl(1-(3-(oxiran-2-yl)propyl)-1H-indol-3-yl)methanone], for which the fold induction at 35 µM was determined as 2.07. Consider `CCCC(Cl)Cn1cc(C(=O)C2C(C)(C)C2(C)C)c2ccccc21` (stereo not drawn) [Example 157, (1-(2-chloropentyl)-1H-indol-3-yl)(2,2,3,3-tetramethylcyclopropyl)methanone], for which the fold induction at 35 µM came to 2.07. Take `O=C(Oc1cccc2ncccc12)c1cn(CCCCCF)c2ccccc12` [Example 158, quinolin-5-yl 1-(5-fluoropentyl)-1H-indole-3-carboxylate]: the fold induction at 35 µM is 2.07. On the same count and under the same terms, then `CCCCCCC(C)(C)c1cc(O)cc(OCCCCCCCC(=O)NC2CC2)c1` [Example 159, N-cyclopropyl-8-[3-(1,1-dimethylheptyl)-5-hydroxyphenoxy]-octanamide], with 2.06.

As to `O=C(c1cn(CCCCCF)c2ccccc12)C12CC3CC(CC(C3)C1)C2` [Example 160, [1-(5-fluoropentyl)-1H-indol-3-yl]tricyclo[3.3.1.13,7]dec-1-yl-methanone], the fold induction at 35 µM stood at 2.06.

The same test, now with this note: MHC-I expression, COLO 205 cells, compounds at 35 μM, 48 hours, flow cytometry (W6/32).
On to `O=C(NC12CC3CC(CC(C3)C1)C2)c1nn(Cc2ccc(F)cc2)c2ccccc12` [Example 117, N-((3s,5s,7s)-adamantan-1-yl)-1-(4-fluorobenzyl)-1H-indazole-3-carboxamide], for which the “Induction Fold” value is 2.34 Fold. In the case of `CCCCCCN1C(=O)/C(=N\NC(=O)c2ccccc2)c2ccccc21` [Example 125, (2Z)-2-(1-hexyl-1,2-dihydro-2-oxo-3H-indol-3-ylidene)hydrazide, benzoic acid], the “Induction Fold” value is recorded as 2.29 Fold.

With `CCCCCn1nc(C(=O)c2cccc3ccccc23)c2ccccc21` [Example 149, 1-naphthalenyl(1-pentyl-1H-indazol-3-yl)-methanone], the “Induction Fold” value was 2.14 Fold.
